Measured values as given in patent US20060008891A1, “Cathepsin G-related peptides as modulators of formylpeptide receptors (FPR)” (The Government of USA as repersented by the Secretary, …, priority 2004, published 2006).
“Also recorded” adds a separate entry of the source.

Experiments:
neutrophils = test: Chemotaxis assay, neutrophils; format: cell-based, human; settings: neutrophils
Description: Human PBMC were isolated from leukopacks obtained through the courtesy of Transfusion Medicine Department, National Institutes of Health Clinical Center (Bethesda, Md.) by Ficoll-Hypaque density gradient centrifugation. Monocytes were purified from human PBMC by Percoll gradient to yield>90% pure preparations. […] H. Ali and R. Snyderman, Duke University (Durham, N.C.) and maintained in the presence of 0.8 mg/ml geneticin (G418, Life Technologies, Rockville, Md.) in DMEM supplemented with 10% FCS. B. Chemotaxis assay Migration of phagocytes and ETFR cells was assessed using a 48-well microchemotaxis chamber (Neuroprobe, Cabin John, Md.) as previously described (Hu et al. (2001) J Leukoc Biol 70 15512). Briefly, different concentrations of stimulants were placed in the wells of the lower compartment of the chamber, and 50 μl cells (1.5×10^6 cells/ml for monocyte and neutrophil, 1×10^6 ETFR cells/ml) were added to the wells of the upper compartment. The lower and upper compartments were separated by either a 5-μm (for monocyte) or a 10-μm pore size, collagen-coated (for ETFR cells) polycarbonate filter (Osmonics, Livermore, Calif.). After incubation at 37° C. in humidified air with 5% CO2 (60 min for neutrophils, 90 min for monocytes, 4.5 h for ETFR cells), the filter was removed and stained, and the cells migrating across the filter were counted with light microscopy. The results are presented as the mean number of cells (±SD) in three high power fields (HPFs). For analysis of cross-desensitization, cells were pretreated with indicated reagents for 1 h at 37° C. After thorough washing with cold medium (RPMI 1640, 1% BSA), the cells were resuspended and assayed. To measure the effect of various signaling inhibitors, unless otherwise indicated, the cells were pre-incubated at 37° C. for 60 min with the inhibitors, and were then added to the upper wells of the chemotaxis chamber.

monocytes = test: Calcium flux (Fura-2), monocytes; format: cell-based, human
Description: Monocytes or ETFR cells (10^7 cells/ml in RPMI 1640 containing 10% FBS) were loaded with 5 μM Fura-2 at room temperature (30 min for monocytes, 60 min for ETFR cells) in the dark. The cells were washed and resuspended (0.5×10^6 cells/ml) in saline buffer (138 mM NaCl, 6 mM KCl, 1 mM CaCl2, 10 mM HEPES, 5 mM glucose, and 1% BSA, pH 7.4). Two milliliters of the cell suspension were transferred to a quartz cuvette, which was placed in a luminescence spectrometer LS55 (Perkin-Elmer, Beaconsfield, UK). Calcium mobilization was measured by recording the ratio of the fluorescence excited at 340 and 380 nm in response to stimulants.

FPR [1] = biological target: T1, FPR (Homo sapiens, UniProt P21462); test: 125I-CaG binding to ETFR cells; settings: LIGAND program
T1 construct: expressed in transfected cells; host or cells: Rat basophilic leukemia (RBL) cells, stably transfected (ETFR cells); gift of H. Ali and R. Snyderman, Duke University
T1 sequence (P21462 1-350): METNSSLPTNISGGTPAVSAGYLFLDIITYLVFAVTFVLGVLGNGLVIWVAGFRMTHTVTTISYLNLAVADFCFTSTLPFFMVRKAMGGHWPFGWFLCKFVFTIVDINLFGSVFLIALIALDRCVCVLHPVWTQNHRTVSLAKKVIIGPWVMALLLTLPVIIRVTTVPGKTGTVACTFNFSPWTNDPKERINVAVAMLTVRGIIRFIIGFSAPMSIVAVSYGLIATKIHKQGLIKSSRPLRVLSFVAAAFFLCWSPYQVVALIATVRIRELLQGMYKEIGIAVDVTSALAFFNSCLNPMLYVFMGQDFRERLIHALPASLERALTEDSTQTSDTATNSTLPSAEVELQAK
Description: (§1) CaG was iodinated with a chrolamine-T method (Lofstrand Labs, Gaithersburg, Md.) with a specific activity of […] protein. Duplicate samples of ETFR cells or the parental RBL cells (2×10^6 cells in 200 μl RPMI 1640 containing 1% bovine serum albumin, 25 mM Hepes, and 0.05% NaN3) were incubated with 25 nM ^125I-CaG, in the presence of increasing concentrations of unlabeled ligands. After incubation and rotation at room temperature for 1 h, the cells were pelleted through a 10% sucrose/PBS cushion for 1 min at 10,000 g. The supernatant was removed and the radioactivity associated with cell pellets was measured in a γ counter (CliniGamma, Pharmacia Biotech Inc.). The binding data were analyzed with a Macintosh computer-aided program LIGAND (Dr. P. Munson, Division of Computer Research and Technology, NIH, Bethesda, Md.).

parental RBL cells = test: 125I-CaG binding to parental RBL cells; parameters: species or system rat; settings: 25 nM 125I-CaG
Description: as §1

FPR [2] = biological target: T1, FPR; test: FPR cell surface expression (FACS), ETFR cells and monocytes; format: cell-based; settings: 5 μg/ml CaG or 1 μM fMLF, 37° C. 30 min
Description: Cell surface expression of FPR was monitored by a flow cytometer (FACS). Monocytes and ETFR cells (1×10^6 cells/sample) were pretreated with medium or stimulants at 37° C. for 30 minutes. After two washes with cold FACS buffer (DPBS, 1% FCS, 0.02% sodium azide, and 5 mM EDTA, pH7.4), the cells were blocked with 5% normal rat serum followed by incubation with a monoclonal anti-human FPR antibody or isotype matched IgG on ice for 30 min. After three washes with FACS buffer, FITC-labeled rat anti-mouse antibody (PharMingen) was applied and incubated on ice for 30 min. The cells were then washed twice with FACS buffer and analyzed immediately by flow cytometry (Becton Dickinson, San Jose, Calif.).

CHI-39 = test: Chemotaxis of HEK293 cells transfected with chimeric receptor CHI-39; format: cell-based, human; settings: N-terminus of FPR replaced by FPRL1 sequences
Description: Human PBMC were isolated from leukopacks obtained through the courtesy of Transfusion Medicine Department, National Institutes of Health Clinical Center (Bethesda, Md.) by Ficoll-Hypaque density gradient centrifugation. Monocytes were purified from human PBMC by Percoll gradient to yield>90% pure preparations. […] H. Ali and R. Snyderman, Duke University (Durham, N.C.) and maintained in the presence of 0.8 mg/ml geneticin (G418, Life Technologies, Rockville, Md.) in DMEM supplemented with 10% FCS. B. Chemotaxis assay Migration of phagocytes and ETFR cells was assessed using a 48-well microchemotaxis chamber (Neuroprobe, Cabin John, Md.) as previously described (Hu et al. (2001) J Leukoc Biol 70 15512). […] After incubation at 37° C. in humidified air with 5% CO2 (60 min for neutrophils, 90 min for monocytes, 4.5 h for ETFR cells), the filter was removed and stained, and the cells migrating across the filter were counted with light microscopy. […]
The chimeric receptor was stably transfected into HEK293 cells (a human embryo kidney cell line) and the chemotactic activity of CaG on the transfected cells was measured and compared to the chemotactic activity of CaG on […] cells transfected with wild type FPR, using the assay for chemotaxis described in Example IB. […]

Kd of 125I-CaG binding (FPR [1]): approximately 2 μg/ml
Substance: CaG: Cathepsin G, serine protease purified from neutrophil granules, purchased from Athens Research & Technology
concentration range potently chemotactic (neutrophils): 4 to 400 nM
Ca2+ flux (monocytes; CaG 10 μg/ml): failed to induce significant Ca^2+ flux
attenuation of Ca2+ response to fMLF (monocytes; CaG 10 μg/ml, 0.1 nM fMLF): attenuated cell response induced by low concentrations of fMLF; also recorded: significantly attenuated cell response to 0.1 nM fMLF
Ca2+ mobilizing activity (monocytes; concentrations up to 20 μg/ml (800 nM)): lacked significant Ca^2+ mobilizing activity
specific binding of 125I-CaG to parental RBL cells (parental RBL cells): no measurable levels of specific binding
down-regulation of FPR from the cell surface (FPR [2]): weaker, but significant ability of CaG to down-regulate FPR
chemotactic activity on CHI-39-transfected HEK293 cells (CHI-39): exhibit robust migration in response to CaG
